The subject of the assay is 521955-158-R2-J5-PDC complex spheroids, viability. Put plainly: Anticancer human tumor 521955-158-R2-J5-PDC patient-derived pancreatic carcinoma cell line growth inhibition [RAS]. The conditions noted are these: for viability, T/C: stronger effect = lower value. The gist of the method:
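Tumour cells grown as complex spheroids with HUVEC endothelial cells and mesenchymal stem cells, treated with RAS pathway inhibitor combinations. Each agent spans half-log steps from near clinical Cmax, or 10 microM where Cmax is unknown.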

Setting [1] is: curve of first compound, second compound 0.0316 µM.
The mark [2] stands for this setting: curve of first compound, second compound 0.1 µM.
Where [3] appears, read: curve of first compound, second compound 0.316 µM.
Where [4] appears, read: curve of first compound, second compound 1 µM.
Setting [5] is: second compound 0.0316 µM, first compound 0.0316 µM.
[6] abbreviates: second compound 0.0316 µM, first compound 0.1 µM.
The mark [7] stands for this setting: second compound 0.0316 µM, first compound 0.316 µM.
[8] abbreviates: second compound 0.0316 µM, first compound 1 µM.
Setting [9] is: second compound 0.0316 µM, first compound 3.16 µM.
[10] abbreviates: second compound 0.0316 µM, first compound 10 µM.
[11] abbreviates: second compound 0.1 µM, first compound 0.0316 µM.
[12] abbreviates: second compound 0.1 µM, first compound 0.1 µM.
Where [13] appears, read: second compound 0.1 µM, first compound 0.316 µM.
[14] abbreviates: second compound 0.1 µM, first compound 1 µM.
[15] abbreviates: second compound 0.1 µM, first compound 3.16 µM.
[16] abbreviates: second compound 0.1 µM, first compound 10 µM.
The mark [17] stands for this setting: second compound 0.316 µM, first compound 0.0316 µM.
The mark [18] stands for this setting: second compound 0.316 µM, first compound 0.1 µM.
Where [19] appears, read: second compound 0.316 µM, first compound 0.316 µM.
[20] abbreviates: second compound 0.316 µM, first compound 1 µM.
Setting [21] is: second compound 0.316 µM, first compound 3.16 µM.
The mark [22] stands for this setting: second compound 0.316 µM, first compound 10 µM.
Where [23] appears, read: second compound 1 µM, first compound 0.0316 µM.
The mark [24] stands for this setting: second compound 1 µM, first compound 0.1 µM.
The mark [25] stands for this setting: second compound 1 µM, first compound 0.316 µM.
The mark [26] stands for this setting: second compound 1 µM, first compound 1 µM.
The mark [27] stands for this setting: second compound 1 µM, first compound 3.16 µM.
Setting [28] is: second compound 1 µM, first compound 10 µM.

The term IC50 denotes the concentration at which inhibition is half-maximal. In general, viability, T/C refers to the result in the treated group divided by that in the control group, in per cent.

Several values for one entry are separate records, joined by “and”; a condition that tells them apart may be missing. Equal entries are not always repeated.
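Note: compound exposure lasted seven days before the viability read.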
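Throughout, for viability, T/C: spheroids also contain HUVEC endothelial cells and mesenchymal stem cells as stroma.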

On to `CC1(O)CCCC1n1c(=O)c(C(F)F)cc2cnc(NC3CCN(S(C)(=O)=O)CC3)nc21` (configuration not stated) + C#Cc1c(F)ccc2cc(O)cc(-c3ncc4c(N5CC6CCC(C5)N6)nc(OCC56CCCN5CC(F)C6)nc4c3F)c12, for which the IC50 was greater than 10 µM under setting [1]; 3.76 µM under setting [2]; less than 0.0316 µM under setting [3]; 0.0316 µM under setting [4]; less than 0.0316 µM (curve of first compound, second compound 3.16 µM); less than 0.0316 µM (curve of first compound, second compound 10 µM). For the same compound, the viability, T/C by setting is: under setting [5], 53.9%; under setting [6], 48%; under setting [7], 60.1%; under setting [8], 68.4%; under setting [9], 75.1%; under setting [10], 24.9%. Also, the viability, T/C is, setting by setting: under setting [11], 48.8%; under setting [12], 56.6%; under setting [13], 43.4%; under setting [14], 53.9%; under setting [15], 73%; under setting [16], 21.3%. Besides, the viability, T/C was 44.5% under setting [17]; 37.4% under setting [18]; 41.1% under setting [19]; 51.3% under setting [20]; 63.1% under setting [21]; 19.5% under setting [22]. Moreover, the viability, T/C is 52.3% under setting [23]; 41.4% under setting [24]; 39.8% under setting [25]; 47.8% under setting [26]; 59.5% under setting [27]; 21.6% under setting [28]. In addition, the viability, T/C (second compound 3.16 µM, first compound 0.0316 µM) was 45.9%; the viability, T/C (second compound 3.16 µM, first compound 0.1 µM) was 31.5%; the viability, T/C (second compound 3.16 µM, first compound 0.316 µM) was 38.8%; the viability, T/C (second compound 3.16 µM, first compound 1 µM) was 40.6%; the viability, T/C (second compound 3.16 µM, first compound 3.16 µM) is 56.6%; the viability, T/C (second compound 3.16 µM, first compound 10 µM) was 24.4%. For the same compound, the viability, T/C (second compound 10 µM, first compound 0.0316 µM) is 42.4%; the viability, T/C (second compound 10 µM, first compound 0.1 µM) was 30.6%; the viability, T/C (second compound 10 µM, first compound 0.316 µM) is 40.4%; the viability, T/C (second compound 10 µM, first compound 1 µM) was 46.2%; the viability, T/C (second compound 10 µM, first compound 3.16 µM) is 62.8%; the viability, T/C (second compound 10 µM, first compound 10 µM) was 12.3%.

As to `C#Cc1c(F)ccc2cc(O)cc(-c3ncc4c(N5CC6CCC(C5)N6)nc(OCC56CCCN5CC(F)C6)nc4c3F)c12` (configuration not stated), the viability, T/C was 64.5% [middle of 8 runs] (compound 0.0316 µM); 57.3% [middle of 8 runs] (compound 0.1 µM); 53.9% [middle of 8 runs] (compound 0.316 µM); 51.1% [middle of 8 runs] (compound 1 µM); 45.4% [middle of 8 runs] (compound 3.16 µM); 35.1% [middle of 8 runs] (compound 10 µM).

In the case of `C[C@@H](NC(=O)c1ncnc(N)c1Cl)c1ncc(C(=O)Nc2cc(C(F)(F)F)c(Cl)cn2)s1`, where the note is “compound 10 µM”, the viability, T/C is 60.9% [middle of 4 runs]. Further, the IC50 (curve of compound) is > 10 µM and 5.73 µM.

For `Cc1nc(N2CCC3(CC2)COC(C)C3N)c(CO)nc1Sc1ccnc(N)c1Cl` (configuration not stated) + C=CC(=O)N1CCN(c2nc(OCC3CCCN3C)nc3c(F)c(-c4nc(N)cc(C)c4C(F)(F)F)c(Cl)cc23)C(C)C1, the IC50 reads like this: (curve of first compound, second compound 0.00316 µM) greater than 10 µM; (curve of first compound, second compound 0.01 µM) greater than 10 µM; under setting [1], greater than 10 µM; under setting [2], greater than 10 µM; under setting [3], greater than 10 µM; under setting [4], greater than 10 µM. Further, the viability, T/C runs as follows: (second compound 0.00316 µM, first compound 0.0316 µM) 88.7%; (second compound 0.00316 µM, first compound 0.1 µM) 77.2%; (second compound 0.00316 µM, first compound 0.316 µM) 69.8%; (second compound 0.00316 µM, first compound 1 µM) 70.5%; (second compound 0.00316 µM, first compound 3.16 µM) 60.1%; (second compound 0.00316 µM, first compound 10 µM) 56.8%. Also, the viability, T/C was 81.2% (second compound 0.01 µM, first compound 0.0316 µM); 79% (second compound 0.01 µM, first compound 0.1 µM); 64.6% (second compound 0.01 µM, first compound 0.316 µM); 64.2% (second compound 0.01 µM, first compound 1 µM); 60.3% (second compound 0.01 µM, first compound 3.16 µM); 63.3% (second compound 0.01 µM, first compound 10 µM). Further, the viability, T/C by setting is: under setting [5], 73.8%; under setting [6], 90.9%; under setting [7], 72.1%; under setting [8], 71.6%; under setting [9], 60.7%; under setting [10], 56.9%. In addition, the viability, T/C was 101% under setting [11]; 78.5% under setting [12]; 70.5% under setting [13]; 63.2% under setting [14]; 63% under setting [15]; 54.1% under setting [16]. Also, the viability, T/C is 100% under setting [17]; 80.3% under setting [18]; 61% under setting [19]; 61.3% under setting [20]; 64.8% under setting [21]; 56% under setting [22]. For the same compound, the viability, T/C is, setting by setting: under setting [23], 106%; under setting [24], 70.1%; under setting [25], 66.5%; under setting [26], 62.6%; under setting [27], 55.3%; under setting [28], 48.3%.
